# Data reported in patent publication US11807644B2 (PMV Pharmaceuticals, Inc., priority 2020, dated 2023).
# Molecular target: T1, recombinant His-tag Y220C p53 DBD protein (Homo sapiens, UniProt P04637, Y220C)
# T1 construct: recombinant His-tag Y220C p53 DBD protein (amino acids #˜94-312)
# Assay: In vitro DNA binding activity assay (TR-FRET): binding of His-tag Y220C p53 DBD to biotin-labeled consensus DNA
# Assay type: biochemical
# Details: SC150 = concentration to increase DNA binding by […], His-tag Y220C p53 DBD, biotin-labeled consensus DNA
row,SMILES,Y220C SC150 (μM)
1,"COc1cc(S(C)(=O)=O)ccc1NCc1nnc(-c2cc3c(N[C@H]4CCN(C)C[C@H]4F)cccc3n2CC(F)(F)F)s1 [Compound 61B, N-[(3R,4S)-3-fluoro-1-methylpiperidin-4-yl]-2-(5-{[(4-methanesulfonyl-2-methoxyphenyl)amino]methyl}-1,3,4-thiadiazol-2-yl)-1-(2,2,2-trifluoroethyl)-1H-indol-4-amine]",* (* = 0 μM ≤ SC150 < 0.1 μM)
2,"COc1cc(S(C)(=O)=O)ccc1NCc1nnc(-c2cc3c(N[C@@H]4CCN(C)C[C@@H]4F)cccc3n2CC(F)(F)F)s1 [Compound 62B, N-[(3S,4R)-3-fluoro-1-methylpiperidin-4-yl]-2-(5-{[(4-methanesulfonyl-2-methoxyphenyl)amino]methyl}-1,3,4-thiadiazol-2-yl)-1-(2,2,2-trifluoroethyl)-1H-indol-4-amine]",* (* = 0 μM ≤ SC150 < 0.1 μM)
3,"COc1ccc(C(=O)NCc2nnc(-c3cc4c(NC5CCN(C)CC5)cccc4n3CC(F)(F)F)s2)cc1 [Compound 63B, 4-methoxy-N-[(5-{4-[(1-methylpiperidin-4-yl)amino]-1-(2,2,2-trifluoroethyl)-1H-indol-2-yl}-1,3,4-thiadiazol-2-yl)methyl]benzamide]",* (* = 0 μM ≤ SC150 < 0.1 μM)
4,"COc1cccc(C(=O)NCc2nnc(-c3cc4c(NC5CCN(C)CC5)cccc4n3CC(F)(F)F)s2)c1 [Compound 64B, 3-methoxy-N-[(5-{4-[(1-methylpiperidin-4-yl)amino]-1-(2,2,2-trifluoroethyl)-1H-indol-2-yl}-1,3,4-thiadiazol-2-yl)methyl]benzamide]",* (* = 0 μM ≤ SC150 < 0.1 μM)
5,"CCCC(=O)NCc1nnc(-c2cc3c(NC4CCN(C)CC4)cccc3n2CC(F)(F)F)s1 [Compound 65B, N-[(5-{4-[(1-methylpiperidin-4-yl)amino]-1-(2,2,2-trifluoroethyl)-1H-indol-2-yl}-1,3,4-thiadiazol-2-yl)methyl]butanamide]",** (** = 0.1 μM ≤ SC150 < 0.5 μM)
6,"COc1ccccc1C(=O)NCc1nnc(-c2cc3c(NC4CCN(C)CC4)cccc3n2CC(F)(F)F)s1 [Compound 66B, 2-methoxy-N-[(5-{4-[(1-methylpiperidin-4-yl)amino]-1-(2,2,2-trifluoroethyl)-1H-indol-2-yl}-1,3,4-thiadiazol-2-yl)methyl]benzamide]",* (* = 0 μM ≤ SC150 < 0.1 μM)
7,"CN1CCC(Nc2cccc3c2cc(-c2nnc(CNC(=O)N(C)C)s2)n3CC(F)(F)F)CC1 [Compound 68B, 3,3-dimethyl-1-[(5-{4-[(1-methylpiperidin-4-yl)amino]-1-(2,2,2-trifluoroethyl)-1H-indol-2-yl}-1,3,4-thiadiazol-2-yl)methyl]urea]",** (** = 0.1 μM ≤ SC150 < 0.5 μM)
8,"CN1CCC(Nc2cccc3c2cc(-c2nnc(CNC(=O)c4ccc5cn[nH]c5c4)s2)n3CC(F)(F)F)CC1 [Compound 69B, N-[(5-{4-[(1-methylpiperidin-4-yl)amino]-1-(2,2,2-trifluoroethyl)-1H-indol-2-yl}-1,3,4-thiadiazol-2-yl)methyl]-1H-indazole-6-carboxamide]",* (* = 0 μM ≤ SC150 < 0.1 μM)
9,"O=C(NCc1nnc(-c2cc3c(N[C@@H]4CCNC[C@@H]4F)cccc3n2CC(F)(F)F)s1)OCc1ccccc1 [Compound 70B, benzyl N-{[5-(4-{[(3S,4R)-3-fluoropiperidin-4-yl]amino}-1-(2,2,2-trifluoroethyl)-1H-indol-2-yl)-1,3,4-thiadiazol-2-yl]methyl}carbamate]",* (* = 0 μM ≤ SC150 < 0.1 μM)
10,"CN1CCC(Nc2cccc3c2cc(-c2nnc(CNC(=O)C4(C)CC4)s2)n3CC(F)(F)F)CC1 [Compound 71B, 1-methyl-N-[(5-{4-[(1-methylpiperidin-4-yl)amino]-1-(2,2,2-trifluoroethyl)-1H-indol-2-yl}-1,3,4-thiadiazol-2-yl)methyl]cyclopropane-1-carboxamide]",** (** = 0.1 μM ≤ SC150 < 0.5 μM)
11,"CN1CCC(Nc2cccc3c2cc(-c2nnc(CNC(=O)c4cn[nH]c4)s2)n3CC(F)(F)F)CC1 [Compound 72B, N-[(5-{4-[(1-methylpiperidin-4-yl)amino]-1-(2,2,2-trifluoroethyl)-1H-indol-2-yl}-1,3,4-thiadiazol-2-yl)methyl]-1H-pyrazole-4-carboxamide]",* (* = 0 μM ≤ SC150 < 0.1 μM)
12,"CCC1(C(=O)NCc2nnc(-c3cc4c(NC5CCN(C)CC5)cccc4n3CC(F)(F)F)s2)CC1 [Compound 74B, 1-ethyl-N-[(5-{4-[(1-methylpiperidin-4-yl)amino]-1-(2,2,2-trifluoroethyl)-1H-indol-2-yl}-1,3,4-thiadiazol-2-yl)methyl]cyclopropane-1-carboxamide]",** (** = 0.1 μM ≤ SC150 < 0.5 μM)
13,"CN1CCC(Nc2cccc3c2cc(-c2nnc(CNC(=O)c4ccn(C)c4)s2)n3CC(F)(F)F)CC1 [Compound 77B, 1-methyl-N-[(5-{4-[(1-methylpiperidin-4-yl)amino]-1-(2,2,2-trifluoroethyl)-1H-indol-2-yl}-1,3,4-thiadiazol-2-yl)methyl]-1H-pyrrole-3-carboxamide]",* (* = 0 μM ≤ SC150 < 0.1 μM)
14,"CN1CCC(Nc2cccc3c2cc(-c2nnc(CNC(=O)c4cc[nH]c4)s2)n3CC(F)(F)F)CC1 [Compound 78B, N-[(5-{4-[(1-methylpiperidin-4-yl)amino]-1-(2,2,2-trifluoroethyl)-1H-indol-2-yl}-1,3,4-thiadiazol-2-yl)methyl]-1H-pyrrole-3-carboxamide]",* (* = 0 μM ≤ SC150 < 0.1 μM)
15,"CN1CCC(Nc2cccc3c2cc(-c2nnc(CNC(=O)C4CC4c4cccs4)s2)n3CC(F)(F)F)CC1 (centres unmarked) [Compound 79B, N-[(5-{4-[(1-methylpiperidin-4-yl)amino]-1-(2,2,2-trifluoroethyl)-1H-indol-2-yl}-1,3,4-thiadiazol-2-yl)methyl]-2-(thiophen-2-yl)cyclopropane-1-carboxamide]",* (* = 0 μM ≤ SC150 < 0.1 μM)
16,"CN1CCC(Nc2cccc3c2cc(-c2nnc(CNC4CCNC4)s2)n3CC(F)(F)F)CC1 (centres unmarked) [Compound 80B, N-(1-methylpiperidin-4-yl)-2-(5-{[(pyrrolidin-3-yl)amino]methyl}-1,3,4-thiadiazol-2-yl)-1-(2,2,2-trifluoroethyl)-1H-indol-4-amine]",**** (**** = 1 μM ≤ SC150 < 10 μM)
17,"CN1CCC(Nc2cccc3c2cc(-c2nnc(CNc4cn[nH]c4)s2)n3CC(F)(F)F)CC1 [Compound 82B, N-(1-methylpiperidin-4-yl)-2-(5-{[(1H-pyrazol-4-yl)amino]methyl}-1,3,4-thiadiazol-2-yl)-1-(2,2,2-trifluoroethyl)-1H-indol-4-amine]",** (** = 0.1 μM ≤ SC150 < 0.5 μM)
18,"CN1CCC(Nc2cccc3c2cc(-c2ncc(CNC(=O)c4ccccc4)s2)n3CC(F)(F)F)CC1 [Compound 92B, N-[(2-{4-[(1-methylpiperidin-4-yl)amino]-1-(2,2,2-trifluoroethyl)-1H-indol-2-yl}-1,3-thiazol-5-yl)methyl]benzamide]",** (** = 0.1 μM ≤ SC150 < 0.5 μM)
19,"CN1CCC(Nc2cccc3c2cc(-c2ncc(CNC(=O)C4CC4)s2)n3CC(F)(F)F)CC1 [Compound 94B, N-[(2-{4-[(1-methylpiperidin-4-yl)amino]-1-(2,2,2-trifluoroethyl)-1H-indol-2-yl}-1,3-thiazol-5-yl)methyl]cyclopropanecarboxamide]",* (* = 0 μM ≤ SC150 < 0.1 μM)
20,"COc1cc(S(C)(=O)=O)ccc1NCc1cnc(-c2cc3c(N[C@@H]4CCN(C)C[C@@H]4F)cccc3n2CC(F)(F)F)s1 [Compound 99B, N-[(3S,4R)-3-fluoro-1-methylpiperidin-4-yl]-2-(5-{[(4-methanesulfonyl-2-methoxyphenyl)amino]methyl}-1,3-thiazol-2-yl)-1-(2,2,2-trifluoroethyl)-1H-indol-4-amine]",* (* = 0 μM ≤ SC150 < 0.1 μM)
21,"CN1CCC(Nc2cccc3c2cc(-c2ccc(CNc4ccc(S(C)(=O)=O)cc4)s2)n3CC(F)(F)F)CC1 [Compound 100B, 2-(5-{[(4-methanesulfonylphenyl)amino]methyl}thiophen-2-yl)-N-(1-methylpiperidin-4-yl)-1-(2,2,2-trifluoroethyl)-1H-indol-4-amine]",** (** = 0.1 μM ≤ SC150 < 0.5 μM)
22,"CN1CCC(Nc2cccc3c2cc(-c2nnc(CNc4ccccc4)o2)n3CC(F)(F)F)CC1 [Compound 108B, N-(1-methylpiperidin-4-yl)-2-{5-[(phenylamino)methyl]-1,3,4-oxadiazol-2-yl}-1-(2,2,2-trifluoroethyl)-1H-indol-4-amine]",** (** = 0.1 μM ≤ SC150 < 0.5 μM)
23,"CN1CCC(Nc2cccc3c2cc(-c2nnc(CNC(=O)C4CC4)o2)n3CC(F)(F)F)CC1 [Compound 110B, N-[(5-{4-[(1-methylpiperidin-4-yl)amino]-1-(2,2,2-trifluoroethyl)-1H-indol-2-yl}-1,3,4-oxadiazol-2-yl)methyl]cyclopropanecarboxamide]",*** (*** = 0.5 μM ≤ SC150 < 1 μM)
24,"CN1CCC(Nc2cccc3c2cc(-c2nnc(CNc4ccc(S(C)(=O)=O)cc4)o2)n3CC(F)(F)F)CC1 [Compound 111B, 2-(5-{[(4-methanesulfonylphenyl)amino]methyl}-1,3,4-oxadiazol-2-yl)-N-(1-methylpiperidin-4-yl)-1-(2,2,2-trifluoroethyl)-1H-indol-4-amine]",** (** = 0.1 μM ≤ SC150 < 0.5 μM)
25,"CN1CCC(Nc2cccc3c2cc(-c2nnc(CNc4cn[nH]c4)o2)n3CC(F)(F)F)CC1 [Compound 112B, N-(1-methylpiperidin-4-yl)-2-(5-{[(1H-pyrazol-4-yl)amino]methyl}-1,3,4-oxadiazol-2-yl)-1-(2,2,2-trifluoroethyl)-1H-indol-4-amine]",*** (*** = 0.5 μM ≤ SC150 < 1 μM)
26,"CN1CCC(Nc2cccc3c2cc(-c2nc(CNc4ccc(S(C)(=O)=O)cc4)no2)n3CC(F)(F)F)CC1 [Compound 136B, N-(1-methylpiperidin-4-yl)-2-(3-(((4-(methylsulfonyl)phenyl)amino)methyl)-1,2,4-oxadiazol-5-yl)-1-(2,2,2-trifluoroethyl)-1H-indol-4-amine]",* (* = 0 μM ≤ SC150 < 0.1 μM)
